{
  "source": "patent US12319913B2",
  "about": "“5-halouracil-modified microRNAs and their use in the treatment of cancer” (The Research Foundation for The State University of New York, priority 2018, dated 2025)",
  "key": {"TS-FdUMP": {"biological_target": "T1, TS-FdUMP (Homo sapiens, UniProt P04818)", "T1 construct": "endogenous in cells", "T1 sequence (P04818 2-313 limits assumed)": "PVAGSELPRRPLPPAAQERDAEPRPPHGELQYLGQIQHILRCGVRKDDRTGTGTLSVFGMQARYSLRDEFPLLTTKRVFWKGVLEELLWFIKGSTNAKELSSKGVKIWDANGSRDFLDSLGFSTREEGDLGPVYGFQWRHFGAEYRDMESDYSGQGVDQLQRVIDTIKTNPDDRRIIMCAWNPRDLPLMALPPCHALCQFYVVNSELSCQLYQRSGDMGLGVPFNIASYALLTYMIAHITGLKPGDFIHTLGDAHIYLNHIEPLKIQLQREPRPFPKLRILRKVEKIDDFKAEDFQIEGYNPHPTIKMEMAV", "assay": "Western blot of TS / TS-FdUMP in MDA-MB-231 cells", "assay_type": "cell-based", "conditions": "breast cancer cells, FIG. 21B", "description": "(§1) Western immunoblot analysis: Forty-eight hours after transfection, equal amounts of protein (15 μg) extracted from cells lysed in RIPA buffer with protease inhibitor (Sigma) and were separated on 10%-12% sodium dodecyl sulfate-polyacrylamide gels using standard procedures. The primary antibodies used for the analysis were rabbit anti-YAP1 monoclonal antibody (1:10000) (Cell Signaling Technologies), anti-DLCK1 (1:500) (Abcam), anti-BCL2 (1:500) (NeoMarkers), anti-MDC1 (1:500), anti-SUZ12 (1:500), anti-pChk-1 (1:500), anti beta-actin (1:500), anti-BMI-1 (1:10000) (Cell Signaling Technologies), mouse anti-human TS antibody (1:500), anti-α-tubulin (1:50000) (Santa Cruz Biotech Inc.), anti-GAPDH (1:100000) (Santa Cruz Biotech Inc.), anti-E2F3 (1:500) (Santa Cruz Biotech Inc.), Horseradish peroxidase-conjugated antibodies against mouse or rabbit (1:5000, Santa Cruz Biotech Inc.) were used as the secondary antibodies. Protein bands were visualized with autoradiography film using SuperSignal West Pico Chemiluminescent Substrate (Thermo Fischer). Western blot density was quantified using Image J software."}, "[1]": {"test_system": "MDA-MB-231 breast cancer cells", "assay": "Triple negative breast cancer xenograft mouse model (MDA-MB-231, tail vein)", "assay_type": "in vivo", "conditions": "intravenous, every other day for 17 days, vs negative control and native miR-489", "description": "Modified miR-489 inhibits breast cancer development and progression in vivo. A triple negative breast cancer xenograft mouse model was developed by tail vein injection of MDA-MB-231 breast cancer cells and tumors were developed over time. Mice were then injected with modified miR-489 composition having the nucleotide sequence set forth in SEQ ID NO: 32, exogenous native miR-489, or negative control miRNA by intravenous injection with treatment frequency of one injection every other day for 17 days and mice were euthanized and tumors size was measured using imaging techniques."}, "MDC1 and SUZ12": {"test_system": "MDC1 and SUZ12", "assay": "Western blot of MDC1 and SUZ12 in triple negative breast cancer cells", "assay_type": "cell-based, human", "description": "as §1"}, "[2]": {"test_system": "MDA-MB-231 triple negative breast cancer cells", "assay": "MTT cell proliferation, MDA-MB-231, with or without oligofectamine", "assay_type": "cell-based, human", "description": "For transfections, 1×10^5 cells were plated in six-well plates and transfected with 100 nM of control non-specific miRNA (Thermo Fischer), a modified microRNA, or exogenous native microRNA after 24 hours using Oligofectamine (Thermo Fischer) following the manufacturer's protocols. For reagent free transfection, cells were plated in 6 well plates at (1×10^5) cells per well. Twenty-four hours later 100 pmol miRNA (Control, miR-15a, Mimic-1) were diluted in Optimem (Thermo Fischer) and added to the plate. Media was changed after 24 hours. Media was supplemented with 10% fetal bovine serum (Thermo Fischer). Briefly, cells were cultured in growth media (DMEM/F12 supplemented with B27, 10 ng/mL bFGF, and 20 ng/mL EGF (Life Technologies) in ultra-low attachment flasks) for up to 6 days. The spheroid cells were maintained by collection through gentle centrifugation, dissociation to single cells and replating.\nFurthermore, to test whether or not the modified microRNAs of the present disclosure can be delivered directly to cells and taken up by the cancer cells without the use of transfer agents or vehicles (i.e., oligofectamine), MDA-MB-231 triple negative breast cancer cells were transfected with miR-NC (negative control), exogenous unmodified miR-200b or miR-489, 5-FU-miR-200b or modified miR-489 by using oligofectamine or without delivery vehicle. As shown in FIGS. 17A-17B and 20A, the effects of expression of the exemplary modified miRs tested on breast cancer cell proliferation were monitored by MTT assay for 6 days upon transfection or incubation."}, "[3]": {"test_system": "MDA-MB-231 breast cancer cells", "assay": "Cell cycle analysis, MDA-MB-231 breast cancer cells", "assay_type": "cell-based, human", "conditions": "compared to native exogenous microRNAs or NC", "description": "Cell cycle analysis: Twenty-four hours after transfection, cells were harvested and resuspended at 0.5 to 1×10^6 cells/mL in modified Krishan's buffer supplemented with 0.02 mg/mL RNase H and 0.05 mg/mL propidium iodide. Stained cells were detected by flow cytometry and results were analyzed with Modfit LT™ software. The experiments for cell cycle analysis were performed at least three times."}},
  "data": [
    {"substance": "CGACGGCAU^FAU^FACACU^FACAGU^FG (CGACGGCAUAUACACUACAGUG; 5-fluorouracil replacing uracils, chemistry not fully specified) [modified miR-489]", "values": [
      {"measurement": "expression of TS protein", "setting": "TS-FdUMP", "value": "reduces the expression, and thus activity of TS protein"},
      {"measurement": "tumor size", "setting": "[1]", "value": "drastic reduction in tumor size"},
      {"measurement": "MDC1 and SUZ12 protein expression without a transfection reagent", "setting": "MDC1 and SUZ12; MDA-MB-231, no oligofectamine", "value": "inhibits MDC1 and SUZ12 protein expression"},
      {"measurement": "MDC1 and SUZ12 protein expression", "setting": "MDC1 and SUZ12; triple negative breast cancer cells, western blot", "value": "further reduction of SUZ12 and MDC1"},
      {"measurement": "cell proliferation without delivery vehicle (no oligofectamine)", "setting": "[2]; MDA-MB-231, MTT assay", "value": "effectively reduced cell proliferation"},
      {"measurement": "cell proliferation in the presence of oligofectamine", "setting": "[2]; MDA-MB-231, MTT assay for 6 days, vs miR-NC", "value": "dramatically reduced the cell growth from day 3"},
      {"measurement": "sub G1 and G1/S ratio", "setting": "[3]", "value": "significantly increase"}
    ]}
  ]
}
